pEC50, pIC50: −log10 of the molar value.
How the values were obtained:
[1] = test system: MDA-MB-435; assay: Cancer cell growth inhibition, MDA-MB-435; format: cell-based; details: Homo sapiens; Melanoma, MDA-MB-435, cell viability, 72 h
Experimental: (§1) Cell culture-based assays were used to evaluate the ability of compounds of the invention to inhibit cancer cell growth inhibition.
(§2) Cells were obtained from the American Type Culture Collection (ATCC) and European Collection of Cell Cultures (ECACC).
(§3) Cells were thawed in their appropriate media plus supplements (see table below). Cells were passaged at confluence by washing once in HBSS cation-free followed by a 3 minutes incubation with trypsin ([0.5 μg/ml]/EDTA [0.2 μg/ml]) (Gibco-BRL, 15400054) solution in HBSS at 37° C. (except non-adherent cell lines), and transferred to their appropriate media plus supplements. Prior to seeding at defined cell concentration, cells were recovered in medium, centrifuged and taken up in medium, and counted.
(§4) Cells were plated at 3000/5000/10000 cells/well in 100 μl media in tissue culture 96 well plates (Cultek). After 24 h, media was supplemented by 100 μl/well of diluted IPDNs at 100 μM.
(§5) The Hexosaminidase assay was used for the adherent cell lines, whereas the AlamarBlue® assay was used for the non-adherent cell lines.
(§6) Dose-response curves were generated by serial dilutions (1:1) of the compounds. […] Reagent blanks, containing media plus colorimetric reagent without cells were run on each plate. Blank values were subtracted from test values and were routinely 5-10% of uninhibited control values. Plates were incubated 72 h, and living cell number was determined by AlamarBlue® and Hexosaminidase test. The advantages of using those assays are that both can be done in the same microwell plate. AlamarBlue® assay: plates were incubated 72 h and living cell number was determined by AlamarBlue (Biosource DAL1100). After 4 h incubation at 37° C., relative fluorescent intensity, which correlates with the number of living cells, was read in a Cytofluor plate reader (Millipore) at 535/590 nm (Excitation/emission). The hexosaminidase activity was measured according to the following protocol: the media was removed and cells were washed once with PBS.
(§7) Data analysis was done by calculating the percentage of cell viability normalized in front of negative control values, which were considered as a 100%. The curve was adjusted using a sigmoidal dose-response (variable slope) equation and EC50 values were obtained from the equation
(§8) where, X is the logarithm of concentration. Y is the response. Bottom is the Y value at the bottom plateau Top is the Y value at the top plateau LogEC50 is the X value when the response is halfway between Bottom and Top. With different kinds of variables, this variable is sometimes called ED50 (effective dose, 50%), or IC50 (inhibitory concentration, 50%, used when the curve goes downhill).

[2] = test system: Jurkat; assay: Cancer cell growth inhibition, Jurkat; format: cell-based; details: Homo sapiens, Hematologic, cell viability, 72 h
Experimental: as §1, §2, §3, §4, §5, §6, §7, §8

[3] = test system: RPMI-8226; assay: Cancer cell growth inhibition, RPMI-8226; format: cell-based; details: Homo sapiens; Multiple Myelome, RPMI-8226, cell viability, 72 h
Experimental: as §1, §2, §3, §4, §5, §6, §7, §8

[4] = test system: RAMOS; assay: Cancer cell growth inhibition, RAMOS; format: cell-based; details: Homo sapiens, Hematologic, cell viability, 72 h
Experimental: as §1, §2, §3, §4, §5, §6, §7, §8

[5] = test system: SW-480; assay: Cancer cell growth inhibition, SW-480; format: cell-based; details: Homo sapiens, SW480; Colorectal, SW-480, cell viability, 72 h
Experimental: as §1, §2
as §3, with “counted. […]” for “counted.”
(§9) Dose-response curves were generated by serial dilutions (1:1) of the compounds. […] Plates were incubated 72 h, and living cell number was determined by AlamarBlue® and Hexosaminidase test. […] AlamarBlue® assay: plates were incubated 72 h and living cell number was determined by AlamarBlue (Biosource DAL1100). After 4 h incubation at 37° C., relative fluorescent intensity, which correlates with the number of living cells, was read in a Cytofluor plate reader (Millipore) at 535/590 nm (Excitation/emission). The hexosaminidase activity was measured according to the following protocol: the media was removed and cells were washed once with PBS. […]

[6] = test system: U-87MG; assay: Cancer cell growth inhibition, U-87MG; format: cell-based; details: Homo sapiens, Brain, cell viability, 72 h
Experimental: as §1, §2, §3, §4, §5, §6, §7, §8

[7] = test system: T47D; assay: Cancer cell growth inhibition, T47D; format: cell-based; details: Homo sapiens, Breast, cell viability, 72 h
Experimental: as §1, §2, §3, §4, §5, §6, §7, §8

[8] = test system: SK-MEL-28; assay: Cancer cell growth inhibition, SK-MEL-28; format: cell-based; details: Homo sapiens; Melanoma, SK-MEL-28, cell viability, 72 h
Experimental: as §1, §2, §3, §4, §5
as §6, with “PBS. […]” for “PBS.”

[9] = test system: HCT-116; assay: Cancer cell growth inhibition, HCT-116; format: cell-based; details: Homo sapiens; Colorectal, HCT-116, cell viability, 72 h
Experimental: as §1, §2, §3, §4, §5, §6, §7, §8

[10] = test system: NCI-H1650; assay: Cancer cell growth inhibition, NCI-H1650; format: cell-based; details: Homo sapiens; Lung, NCI-H1650, cell viability, 72 h
Experimental: as §1, §2, §3, §4, §5
as §6, with “PBS. […]” for “PBS.”

[11] = test system: LoVo; assay: Cancer cell growth inhibition, LoVo; format: cell-based; details: Homo sapiens, Colorectal, cell viability, 72 h
Experimental: as §1, §2, §3, §4, §5
as §6, with “PBS. […]” for “PBS.”

[12] = test system: K562; assay: Cancer cell growth inhibition, K562; format: cell-based; details: Homo sapiens; Hematologic, K562, cell viability, 72 h
Experimental: as §1, §2, §3, §4, §5
as §6, with “PBS. […]” for “PBS.”

[13] = test system: SK-OV-3; assay: Cancer cell growth inhibition, SK-OV-3; format: cell-based; details: Homo sapiens; Ovarian, SK-OV-3, cell viability, 72 h
Experimental: as §1, §2, §3, §4, §5
as §6, with “PBS. […]” for “PBS.”

[14] = test system: DU-145; assay: Cancer cell growth inhibition, DU-145; format: cell-based; details: Homo sapiens; Prostate, DU-145, cell viability, 72 h
Experimental: as §1, §2, §3, §4, §5
as §6, with “PBS. […]” for “PBS.”

[15] = test system: PC3; assay: Cancer cell growth inhibition, PC3; format: cell-based; details: Homo sapiens, PC-3; Prostate, PC3, cell viability, 72 h
Experimental: as §1, §2, §3, §4, §5, §6, §7, §8

[16] = test system: LnCaP; assay: Cancer cell growth inhibition, LnCaP; format: cell-based; details: Homo sapiens, Prostate, cell viability, 72 h
Experimental: as §1, §2, §3, §4, §5, §6, §7, §8

[17] = test system: NCI-H358; assay: Cancer cell growth inhibition, NCI-H358; format: cell-based; details: Homo sapiens; Lung, NCI-H358, cell viability, 72 h
Experimental: as §1, §2, §3, §4, §5, §6, §7, §8

[18] = test system: LS174T; assay: Cancer cell growth inhibition, LS174T; format: cell-based; details: Homo sapiens, Colorectal, cell viability, 72 h
Experimental: as §1, §2
as §3, with “counted. […]” for “counted.”
as §9

[19] = test system: Colo205; assay: Cancer cell growth inhibition, Colo205; format: cell-based; details: Homo sapiens, COLO 205; Colorectal, Colo205, cell viability, 72 h
Experimental: as §1, §2, §3, §4, §5
as §6, with “PBS. […]” for “PBS.”

[20] = test system: Panc-1; assay: Cancer cell growth inhibition, Panc-1; format: cell-based; details: Homo sapiens; Pancreatic, Panc-1, cell viability, 72 h
Experimental: as §1, §2, §3, §4, §5, §6, §7, §8

[21] = test system: HT-1080; assay: Cancer cell growth inhibition, HT-1080; format: cell-based; details: Homo sapiens; HT-1080, cell viability, 72 h
Experimental: as §1, §2, §3, §4, §5, §6, §7, §8

[22] = test system: CCFR-CEM; assay: Cancer cell growth inhibition, CCFR-CEM; format: cell-based; details: Hematologic, cell viability, 72 h
Experimental: as §1, §2, §3, §4, §5, §6, §7, §8

[23] = test system: NCI-H1975; assay: Cancer cell growth inhibition, NCI-H1975; format: cell-based; details: Homo sapiens; Lung, NCI-H1975, cell viability, 72 h
Experimental: as §1, §2, §3, §4, §5, §6, §7, §8

[24] = target: T1, Human DNMT1 (Homo sapiens, UniProt P26358); assay: DNMT1 enzymatic activity inhibition, radioisotope-based 3H-SAM filter binding assay; format: biochemical; details: 1 μM SAM, 25 nM DNMT1, 0.005 mg/ml Poly(dI-dC), 30° C. 1 hour, 10-dose
T1 construct: a-a 2-1632, with N-terminal GST tag; GST (N)
T1 sequence (P26358 2-1632 isoform P26358-2): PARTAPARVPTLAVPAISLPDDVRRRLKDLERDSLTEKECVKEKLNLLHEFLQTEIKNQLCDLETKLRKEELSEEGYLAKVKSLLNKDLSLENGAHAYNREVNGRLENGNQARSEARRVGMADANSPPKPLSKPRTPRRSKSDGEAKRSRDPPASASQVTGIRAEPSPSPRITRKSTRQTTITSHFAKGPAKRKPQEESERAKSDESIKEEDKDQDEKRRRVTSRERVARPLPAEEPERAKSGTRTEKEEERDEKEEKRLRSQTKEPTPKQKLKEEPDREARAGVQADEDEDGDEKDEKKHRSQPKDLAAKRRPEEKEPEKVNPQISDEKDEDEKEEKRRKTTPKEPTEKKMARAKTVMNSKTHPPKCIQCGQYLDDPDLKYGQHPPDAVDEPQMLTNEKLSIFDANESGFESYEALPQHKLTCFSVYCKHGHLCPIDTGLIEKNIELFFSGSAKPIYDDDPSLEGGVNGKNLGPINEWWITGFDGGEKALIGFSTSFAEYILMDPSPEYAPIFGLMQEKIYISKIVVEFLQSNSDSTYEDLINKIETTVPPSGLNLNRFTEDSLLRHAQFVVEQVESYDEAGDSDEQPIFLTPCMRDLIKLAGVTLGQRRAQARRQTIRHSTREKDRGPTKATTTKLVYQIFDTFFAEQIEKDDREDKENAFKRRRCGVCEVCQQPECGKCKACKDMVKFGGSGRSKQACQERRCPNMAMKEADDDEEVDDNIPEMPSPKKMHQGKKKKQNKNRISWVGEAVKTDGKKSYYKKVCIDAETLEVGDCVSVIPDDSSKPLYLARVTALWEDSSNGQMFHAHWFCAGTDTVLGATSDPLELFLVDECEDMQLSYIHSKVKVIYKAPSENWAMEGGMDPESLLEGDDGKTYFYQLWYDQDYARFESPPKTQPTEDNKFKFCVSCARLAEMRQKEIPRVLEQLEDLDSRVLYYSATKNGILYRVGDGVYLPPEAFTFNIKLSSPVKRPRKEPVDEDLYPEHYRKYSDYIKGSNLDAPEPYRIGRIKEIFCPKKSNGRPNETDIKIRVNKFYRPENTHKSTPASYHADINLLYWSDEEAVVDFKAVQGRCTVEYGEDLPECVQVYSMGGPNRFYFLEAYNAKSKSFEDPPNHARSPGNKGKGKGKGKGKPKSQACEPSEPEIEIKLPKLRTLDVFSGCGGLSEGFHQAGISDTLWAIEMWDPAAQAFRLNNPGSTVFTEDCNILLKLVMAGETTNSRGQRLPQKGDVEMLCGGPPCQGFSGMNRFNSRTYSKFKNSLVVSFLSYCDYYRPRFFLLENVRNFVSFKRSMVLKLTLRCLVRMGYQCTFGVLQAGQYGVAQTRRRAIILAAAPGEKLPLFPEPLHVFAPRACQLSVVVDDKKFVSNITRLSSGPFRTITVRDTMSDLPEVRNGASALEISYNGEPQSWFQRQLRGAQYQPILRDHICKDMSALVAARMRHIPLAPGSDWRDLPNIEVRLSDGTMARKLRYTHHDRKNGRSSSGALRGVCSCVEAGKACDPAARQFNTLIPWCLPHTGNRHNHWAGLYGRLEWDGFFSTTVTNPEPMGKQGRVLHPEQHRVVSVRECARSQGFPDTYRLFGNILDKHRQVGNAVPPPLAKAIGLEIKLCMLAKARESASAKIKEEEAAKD
Experimental: The inhibition of the enzymatic activity of DNMT1 was tested using low volume radioisotope-based assay which uses tritium-labeled AdoMet (^3H-SAM) as a methyl donor. Inhibitors diluted in DMSO were added by using acoustic technology (Echo550, Labcyte Inc. Sunnyvale, Calif.) into enzyme/substrate mixture in nano-liter range. The reaction was initiated by the addition of ^3H-SAM, and incubated at 30° C. for 1 hour. Total final methylations on the substrate poly(dI-dC) were detected by a filter binding approach. Data analysis was performed using GraphPad Prism software (La Jolla, Calif.) for IC50 curve fits.

[25] = test system: MiaPaCa-2; assay: Cancer cell growth inhibition, MiaPaCa-2; format: cell-based; details: Homo sapiens, MIA PaCa-2; Pancreatic, MiaPaCa-2, cell viability, 72 h
Experimental: as §1, §2, §3, §4, §5, §6, §7, §8

[26] = test system: MCF-7; assay: Cancer cell growth inhibition, MCF-7; format: cell-based; details: Homo sapiens, MCF7; Breast, MCF-7, cell viability, 72 h
Experimental: as §1, §2, §3, §4, §5, §6, §7, §8

[27] = test system: 143B; assay: Cancer cell growth inhibition, 143B; format: cell-based; details: Homo sapiens, Osteosarcoma, cell viability, 72 h
Experimental: as §1, §2, §3, §4, §5, §6, §7, §8

[28] = test system: Daoy; assay: Cancer cell growth inhibition, Daoy; format: cell-based; details: Homo sapiens, Brain, cell viability, 72 h
Experimental: as §1, §2, §3, §4, §5, §6, §7, §8

[29] = test system: A-549; assay: Cancer cell growth inhibition, A-549; format: cell-based; details: Homo sapiens, A549; Lung, A-549, cell viability, 72 h
Experimental: as §1, §2, §3, §4, §5, §6, §7, §8

[30] = test system: U-373MG; assay: Cancer cell growth inhibition, U-373MG; format: cell-based; details: Homo sapiens, U373 MG, Brain, cell viability, 72 h
Experimental: as §1, §2, §3, §4, §5
as §6, with “PBS. […]” for “PBS.”

[31] = test system: SK-HEP-1; assay: Cancer cell growth inhibition, SK-HEP-1; format: cell-based; details: Homo sapiens, SK-HEP1; Liver, SK-HEP-1, cell viability, 72 h
Experimental: as §1, §2, §3, §4, §5
as §6, with “PBS. […]” for “PBS.”

[32] = test system: A-431; assay: Cancer cell growth inhibition, A-431; format: cell-based; details: Homo sapiens; Epidermoid, A-431, cell viability, 72 h
Experimental: as §1, §2, §3, §4, §5, §6, §7, §8

Row | SMILES | pEC50 [1] | pEC50 [2] | pEC50 [3] | pEC50 [6] | pEC50 [7] | pEC50 [9] | pEC50 [17] | pEC50 [22] | pEC50 [23] | pEC50 [25] | pEC50 [26] | pEC50 [28] | also measured
1 | COc1cc(OC)c2c(-c3ccc(O)c(O)c3O)cn(CC(=O)c3ccc(O)c(O)c3O)c2c1 [Example 11, 2-[4,6-dimethoxy-3-(2,3,4-trihydroxyphenyl)-1H-indol-1-yl]-1-(2,3,4-trihydroxyphenyl)ethanone] | 4.96 | 5.05 | 4.22 | 4.30 | 4.52 | 4.66 | 4.29 | 5.12 | 4.52 | 4.19 | 4.92 | 5.18 | pEC50 [4]: 4.92; pEC50 [5]: 4.62; pEC50 [8]: 4.48; pEC50 [10]: 4.24; pEC50 [11]: 4.30; pEC50 [12]: 4.16; pEC50 [13]: 4.14; pEC50 [14]: 4.33; pEC50 [15]: 4.59; pEC50 [16]: 4.52; pEC50 [18]: 4.21; pEC50 [19]: 4.62; pEC50 [20]: 4.64; pEC50 [21]: 4.70; pIC50 [24]: 4.40; pEC50 [27]: 4.00; pEC50 [29]: 4.46; pEC50 [30]: 4.24
2 | COc1cc(OC)c2c(-c3ccc(OC(C)=O)c(OC(C)=O)c3)cn(CC(=O)c3ccc(OC(C)=O)c(OC(C)=O)c3)c2c1 [Example 30, 4-{1-[2-(3,4-diacetoxyphenyl)-2-oxoethyl]-4,6-dimethoxy-1H-indol-3-yl}-1,2-phenylene diacetate] | 4.64 | 4.31 | 4.44 | 4.12 | 4.33 | 4.19 | 4.28 | 4.40 | 4.33 | 4.26 | 4.06 | 4.30 | pEC50 [31]: 4.41; pEC50 [32]: 4.06

Source: patent publication US20150336889A1, “INDOLE DERIVATIVES, PHARMACEUTICAL COMPOSITIONS CONTAINING SUCH INDOLES AND THEIR USE AS DNA METHYLATION MODULATORS” (IKERCHEM, S.L., priority 2012, published 2015)
